Legend:
authentic variola virus = conditions: cited from earlier work
[1] = intravenous administration; cited from earlier work
[2] = in vivo; cited from earlier work
[3] = Moisture content by Karl Fischer method; format: physicochemical; conditions: Tray rehydration (18 hours bench top, 2 hours 25° C./60% RH or 2 hours 40° C./75% RH)

Compound	Variola virus replication (authentic variola virus)	Nephrotoxicity [1]	Bioavailability [2]	Moisture (% w/w KF) [3]
Nc1ccn(C[C@@H](CO)OCP(=O)(O)O)c(=O)n1 [Cidofovir, (S)-1-(3-hydroxy-2-phosphonylmethoxypropyl)cytosine]	inhibit authentic variola virus replication	dose-limiting nephrotoxicity	poorly bioavailable	–
O=C(NN1C(=O)[C@@H]2[C@@H]3C=C[C@@H]([C@H]4C[C@@H]34)[C@@H]2C1=O)c1ccc(C(F)(F)F)cc1 [ST-246, N-[(3aR,4R,4aR,5aS,6S,6aS)-3,3a,4,4a,5,5a,6,6a-octahydro-1,3-dioxo-4,6-ethenocycloprop[f]isoindol-2(1H)-yl]-4-(trifluoromethyl)-benzamide]	–	–	–	~4.5 % w/w

— US10716759B2, “Rehydration of micronized tecovirimat monohydrate” (SIGA TECHNOLOGIES, INC., priority 2013, dated 2020)
